Reference: patent US20240383913A1, “THIOPHENE RING COMPOUND, PREPARATION METHOD THEREFOR AND APPLICATION THEREOF” (CENTER FOR EXCELLENCE IN MOLECULAR CELL SCIENCE, CHINESE …, priority 2021, published 2024)

Legend:
5-HT1A receptor [1] = target: T1, 5-HT1A receptor (Homo sapiens (Human), UniProt P08908); assay: 5-HT1A receptor Gαi1 BRET (G protein trimer dissociation); format: cell-based; settings: 5-HT1A receptor, G protein pathway; for EC50: read-out: Gαi1 BRET EC50;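 on all read-outs here: cells transiently co-expressing 5-HT1A receptor, luciferase-tagged Gαi1, Gβ3 and GFP-tagged Gγ9, seeded in 96-well plates for BRET measurement of G protein signaling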
Protocol: (§1) The affinity of the compounds of the present disclosure for the 5-HTIA receptors was determined by the method of radioligand competition experiment. In the first step, a cell membrane component containing specific 5-HTIA receptor was prepared. A 10 cm culture dish was used for transfection with 10 ng of the 5-HTIA receptor and 40 μL of PEI. After 48 hours, the 10 cm culture dish was taken out from the cell incubator and the cultured cells had expressed the 5-HTIA receptor. A vacuum pump was used to suck off the culture medium, 3 mL of lysis buffer was added to each culture dish, and the cells were placed in a 4° C. cold room for 10 minutes. After the cells were detached, the cells were transferred to a 15 mL centrifuge tube and centrifuged at 1500 rpm for 5 minutes at 4° C., and the supernatant was discarded. The cell pellet was transferred to a tissue homogenizer, and 3 mL of lysis buffer was added and fully ground until the cells were broken. Then, cell suspension was equally aliquoted into several EP tubes, centrifuged at 12000 rpm for 5 minutes at 4° C., and the supernatant was discarded. The precipitate was the cell membrane component containing the 5-HT1A receptor. […] First, a standard binding buffer was added to the cell membrane component containing the 5-HT1A receptor, and the cell membrane was disrupted and resuspended with an electric tissue homogenizer. 30 μL of membrane protein suspension was added to each well of a 96-well plate. Then, 30 μL of different drugs were added to the 96-well plate sequentially from bottom to top to ensure that the final drug concentrations were 10^−5 M, 10^−6 M, 10^−7 M, 10^−8 M, 10^−9 M, and 0 M, with two replicates per treatment. Next, 30 μL of [3H]-LSD was added to each well of the 96-well plate. The plate was incubated for 2 hours at room temperature in the dark. Detection was conducted. The machine readout value reflected the amount of [3H]-LSD bound on the membrane, and after further data processing, the affinity Ki values of different compounds for the 5-HTIA receptor were obtained. To examine the downstream G protein signaling pathway mediated by 5-HTIA receptors, on the first day, a 6 cm culture dish was used for transfection with 1 μg of 5-HTIA receptors, 1 μg of Gαi1 containing C-terminal seaweed luciferase (Gαi1-Rluc), 1 μg of Gβ3, 1 μg of Gγ9 containing C-terminal green fluorescent protein (Gγ9-GFP), and 16 μL of PEI. The next day, the confluent cells of a 6 cm culture dish were digested and reseeded into a 96-well plate with 100 μL of culture medium was added to each well. On the third day, the drugs were added for test. The 96-well plate was taken out from the cell incubator to decant the culture medium, 40 μL of the substrate coelenterazine 400a (final concentration of 5 μM) was added to each well, and then 20 μL of different drugs were added sequentially from left to right to ensure that the final concentration of the drug decreased gradually from bottom to top, with two replicates per treatment. Finally, the prepared samples were loaded on machine for test. The machine readout value reflected the dissociation of G protein trimer, and thereby indicated the degree of activation of the G protein signaling pathway downstream of the 5-HTIA receptors.

dopamine D2 receptors [2] = target: T2, dopamine D2 receptors (Homo sapiens (Human), UniProt P14416); assay: Dopamine D2 receptor β-arrestin2 BRET (recruitment); format: cell-based; settings: for Emax: read-out: β-arrestin2 BRET (Emax %);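 on all read-outs here: cells co-expressing Rluc-fused D2 receptor, GRK2 and GFP2-fused β-arrestin2, BRET read with coelenterazine 400a after adding drug over a concentration series, in duplicate wells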
Protocol: (§2) To examine the downstream G protein signaling pathway mediated by dopamine D2 receptors, on the first day, a 6 cm culture dish was used for transfection with 1 μg of dopamine D2 receptors, 1 μg of Gαi1 containing a C-terminal seaweed luciferase (Gαi1-Rluc), 1 μg of Gβ3, 1 μg of Gγ9 containing C-terminal green fluorescent protein (Gγ9-GFP), and 16 μL of PEI. At the same time, in order to examine the downstream β-arrestin2 signaling pathway mediated by dopamine D2 receptors, on the first day, a 6 cm culture dish was used for transfection with 500 μg of dopamine D2 receptors containing C-terminal seaweed luciferase (D2-Rluc), 500 μg of G protein-coupled receptor kinase 2 (GRK2), 2500 μg of β-arrestin2 containing N-terminal green fluorescent protein (GFP2-ARRB2) mixed with 14 μL of PEI. The next day, the confluent cells of a 6 cm culture dish were digested and reseeded into a 96-well plate with 100 μL of culture medium added to each well. On the third day, the drugs were added for test. The 96-well plate was taken out from the cell incubator to decant the culture medium, 40 μL of the substrate coelenterazine 400a (final concentration of 5 μM) was added to each well, and then 20 μL of different drugs were added sequentially from left to right to ensure that the final concentration of the drug decreased gradually from bottom to top, with two replicates per treatment. Finally, the prepared samples were loaded on machine for test. The machine readout value reflected the recruitment of β-arrestin2 to the membrane or the dissociation of G protein trimer. The former indicated the degree of activation of the β-arrestin2 signaling pathway downstream of the dopamine D2 receptors, and the latter indicated the degree of activation of the G protein signaling pathway downstream of the dopamine D2 receptors.

5-HT2A receptor [3] = target: T3, 5-HT2A receptor (Homo sapiens (Human), UniProt P28223); assay: Affinity for 5-HT2A receptors, radioligand competition with [3H]-ketanserin; format: binding; settings: 293T membrane transiently expressing 5-HT2A
Protocol: The affinity of the compounds of the present disclosure for the 5-HT2A receptors was determined by the method of radioligand competition experiment. In the first step, a cell membrane component containing specific 5-HT2A receptor was prepared. A 10 cm dish was used for transfection with 10 ng of the 5-HT2A receptor and 40 μL of PEI. After 48 hours, the 10 cm dish was taken out from the cell incubator and the cultured cells had expressed the 5-HT2A receptor. A vacuum pump was used to suck off the culture medium, 3 mL of lysis buffer was added to each culture dish, and the cells were placed in a 4° C. cold room for 10 minutes. After the cells were detached, the cells were transferred to a 15 mL centrifuge tube and centrifuged at 1500 rpm for 5 minutes at 4° C., and the supernatant was discarded. The cell pellet was transferred to a tissue homogenizer, and 3 mL of lysis buffer was added and fully ground until the cells were broken. Then, cell suspension was equally aliquoted into several EP tubes, centrifuged at 12000 rpm for 5 minutes at 4° C., and the supernatant was discarded. The precipitate was the cell membrane component containing the 5-HT2A receptor. […] First, a standard binding buffer was added to the cell membrane component containing the 5-HT2A receptor, and the cell membrane was disrupted and resuspended with an electric tissue homogenizer. 30 μL of membrane protein suspension was added to each well of a 96-well plate. Then, 30 μL of different drugs were added to the 96-well plate sequentially from bottom to top to ensure that the final drug concentrations were 10^−5 M, 10^−6 M, 10^−7 M, 10^−8 M, 10^−9 M, and 0 M, with two replicates per treatment. Next, 30 μL of [3H]-ketanserin was added to each well of the 96-well plate. The plate was incubated for 2 hours at room temperature in the dark. Detection was conducted. The machine readout value reflected the amount of [3H]-ketanserin bound on the membrane, and after further data processing, the affinity Ki values of different compounds for the 5-HT2A receptor were obtained.

5-HT1A receptor [4] = target: T1, 5-HT1A receptor; assay: Affinity for 5-HT1A receptors, radioligand competition with [3H]-LSD; format: binding; settings: 293T membrane transiently expressing 5-HT1A; [3H]-LSD; read-out: 5-HT1A affinity Ki;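 further: membranes from cells transiently transfected with 5-HT1A receptor, bound [3H]-LSD displaced by compound at 10^-9 to 10^-5 M, 2 h incubation at room temperature in the dark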
Protocol: as §1

dopamine D2 receptors [5] = target: T2, dopamine D2 receptors; assay: Affinity for dopamine D2 receptors, radioligand competition with [3H]-Methylspiperone; format: binding; settings: 293T membrane transiently expressing D2
Protocol: The affinity of the compounds of the present disclosure for the dopamine D2 receptors was determined by the method of radioligand competition experiment. In the first step, a cell membrane component containing specific dopamine D2 receptors was prepared. A 10 cm culture dish was used for transfection with 10 ng of the dopamine D2 receptors and 40 μL of polyethylenimine (PEI hereafter). After 48 hours, the 10 cm culture dish was taken out from the cell culture incubator and the cultured cells had expressed the dopamine D2 receptors. A vacuum pump was used to suck off the culture medium, 3 mL of lysis buffer was added to each culture dish, and the cells were placed in a 4° C. cold room for 10 minutes. After the cells were detached, the cells were transferred to a 15 mL centrifuge tube and centrifuged at 1500 rpm for 5 minutes at 4° C., and the supernatant was discarded. The cell pellet was transferred to a tissue homogenizer, and 3 mL of lysis buffer was added and fully ground until the cells were broken. Then, cell suspension was equally aliquoted into several EP tubes, centrifuged at 12000 rpm for 5 minutes at 4° C., and the supernatant was discarded. The precipitate was the cell membrane component containing the dopamine D2 receptors. […] First, a standard binding buffer was added to the cell membrane component containing the dopamine D2 receptors, and the cell membrane was disrupted and resuspended with an electric tissue homogenizer. 30 μL of membrane protein suspension was added to each well of a 96-well plate. Then, 30 μL of different drugs were added to the 96-well plate sequentially from bottom to top to ensure that the final drug concentrations were 10^−5 M, 10^−6 M, 10^−7 M, 10^−8 M, 10^−9 M, and 0 M, with two replicates per treatment. Next, 30 μL of [3H]-Methylspiperone was added to each well of the 96-well plate. The plate was incubated for 2 hours at room temperature in the dark. Detection was conducted. The machine readout value reflected the amount of [3H]-Methylspiperone bound on the membrane, and after further data processing, the affinity Ki values of different compounds for the dopamine D2 receptors were obtained.

dopamine D2 receptors [6] = target: T2, dopamine D2 receptors; assay: Dopamine D2 receptor Gαi1 BRET (G protein trimer dissociation); format: cell-based; settings: for Emax: read-out: Gαi1 BRET (Emax %);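 on all read-outs here: transfected cells co-expressing D2 receptor, Gαi1-Rluc, Gβ3 and Gγ9-GFP, BRET with coelenterazine 400a at 5 µM read as G protein trimer dissociation, graded drug concentrations in duplicate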
Protocol: as §2

5-HT2A receptor [7] = target: T3, 5-HT2A receptor; assay: 5-HT2A receptor Gαq BRET (G protein trimer dissociation); format: cell-based; settings: for EC50: read-out: Gαq BRET EC50; for Emax: read-out: Gαq BRET (Emax %);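 on all read-outs here: cells transfected with 5-HT2A receptor, Gαq-Rluc, Gβ3 and Gγ9-GFP, BRET read with coelenterazine 400a (5 µM) across a compound dilution series in duplicate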
Protocol: (§3) To examine the downstream G protein signaling pathway mediated by 5-HT2A receptors, on the first day, a 6 cm culture dish was used for transfection with 1 μg of 5-HT2A receptors, 1 μg of Gαq containing C-terminal seaweed luciferase (Gαq-Rluc), 1 μg of Gβ3, 1 μg of Gγ9 containing C-terminal green fluorescent protein (Gγ9-GFP), and 16 μL of PEI. At the same time, in order to examine the downstream β-arrestin2 signaling pathway mediated by 5-HT2A receptors, on the first day, a 6 cm culture dish was used for transfection with 500 μg of 5-HT2A receptors containing C-terminal seaweed luciferase (5-HT2A-Rluc), 500 μg of G protein-coupled receptor kinase 2 (GRK2), 2500 μg of β-arrestin2 containing N-terminal green fluorescent protein (GFP2-ARRB2), and 14 μL of PEI. The next day, the confluent cells of a 6 cm culture dish were digested and reseeded into a 96-well plate with 100 μL of culture medium was added to each well. On the third day, the drugs were added for test. The 96-well plate was taken out from the cell incubator to decant the culture medium, 40 μL of the substrate coelenterazine 400a (final concentration of 5 μM) was added to each well, and then 20 μL of different drugs were added sequentially from left to right to ensure that the final concentration of the drug decreased gradually from bottom to top, with two replicates per treatment. Finally, the prepared samples were loaded on machine for test. The machine readout value reflected the recruitment of β-arrestin2 to the membrane or the dissociation of G protein trimer. The former indicated the degree of activation of the β-arrestin2 signaling pathway downstream of the 5-HT2A receptors, and the latter indicated the degree of activation of the G protein signaling pathway downstream of the 5-HT2A receptors.

5-HT2A receptor [8] = target: T3, 5-HT2A receptor; assay: 5-HT2A receptor β-arrestin2 BRET (recruitment); format: cell-based; settings: 5-HT2A receptor, β-arrestin2 pathway; for EC50: read-out: β-arrestin2 BRET EC50;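 on all read-outs here: cells co-expressing Rluc-tagged 5-HT2A receptor, GRK2 and GFP2-tagged β-arrestin2, read by BRET with coelenterazine 400a (5 µM) across graded drug concentrations in duplicate, signal reflecting β-arrestin2 membrane recruitment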
Protocol: as §3

[9] = D2 receptor, β-arrestin2 pathway, read-out: β-arrestin2 BRET EC50
[10] = D2 receptor, G protein pathway, read-out: Gαi1 BRET EC50
[11] = 5-HT2A receptor, G protein pathway
[12] = D2 receptor, β-arrestin2 pathway

T3 sequence (P28223 whole entry): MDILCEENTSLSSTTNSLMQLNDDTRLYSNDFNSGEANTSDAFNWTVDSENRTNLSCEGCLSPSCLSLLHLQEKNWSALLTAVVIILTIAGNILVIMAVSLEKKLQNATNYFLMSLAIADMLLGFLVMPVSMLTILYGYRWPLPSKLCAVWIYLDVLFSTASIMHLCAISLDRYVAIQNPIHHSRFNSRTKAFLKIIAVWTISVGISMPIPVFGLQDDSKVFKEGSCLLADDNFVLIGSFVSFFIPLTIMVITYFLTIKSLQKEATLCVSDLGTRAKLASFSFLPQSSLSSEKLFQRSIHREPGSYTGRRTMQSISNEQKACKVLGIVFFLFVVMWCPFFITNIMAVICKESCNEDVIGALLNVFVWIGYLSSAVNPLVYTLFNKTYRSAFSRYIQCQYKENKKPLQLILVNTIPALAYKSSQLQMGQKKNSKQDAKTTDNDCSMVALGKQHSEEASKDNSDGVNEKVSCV
T2 sequence (P14416 whole entry, the tested form may be a part): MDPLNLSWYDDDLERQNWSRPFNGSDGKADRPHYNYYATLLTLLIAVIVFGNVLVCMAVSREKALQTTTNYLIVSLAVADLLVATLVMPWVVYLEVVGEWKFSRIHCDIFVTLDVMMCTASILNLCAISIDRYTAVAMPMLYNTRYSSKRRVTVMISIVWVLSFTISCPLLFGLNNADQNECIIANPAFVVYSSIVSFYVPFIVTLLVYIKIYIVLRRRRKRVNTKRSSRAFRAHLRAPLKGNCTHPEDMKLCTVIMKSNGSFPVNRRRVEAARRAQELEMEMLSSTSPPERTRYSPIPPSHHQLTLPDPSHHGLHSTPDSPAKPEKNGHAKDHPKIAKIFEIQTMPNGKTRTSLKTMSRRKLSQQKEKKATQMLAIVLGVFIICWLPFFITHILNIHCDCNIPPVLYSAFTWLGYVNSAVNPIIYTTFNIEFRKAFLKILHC
T1 sequence (P08908 whole entry, the tested form may be a part): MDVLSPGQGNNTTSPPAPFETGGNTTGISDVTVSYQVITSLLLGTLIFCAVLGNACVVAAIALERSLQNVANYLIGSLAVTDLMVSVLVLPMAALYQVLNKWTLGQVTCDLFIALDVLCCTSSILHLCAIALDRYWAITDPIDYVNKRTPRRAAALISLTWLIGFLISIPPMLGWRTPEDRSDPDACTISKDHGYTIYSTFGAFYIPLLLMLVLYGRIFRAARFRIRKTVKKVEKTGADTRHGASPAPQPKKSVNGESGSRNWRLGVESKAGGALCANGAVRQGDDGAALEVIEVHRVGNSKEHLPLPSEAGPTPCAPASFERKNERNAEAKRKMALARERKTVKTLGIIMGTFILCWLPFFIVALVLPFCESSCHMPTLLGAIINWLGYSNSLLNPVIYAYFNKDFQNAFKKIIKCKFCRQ

| Structure (SMILES) | Emax (5-HT1A receptor [1]) [%] | EC50 (5-HT1A receptor [1]) [nM] | EC50 (dopamine D2 receptors [2]; [9]) [nM] | Emax (dopamine D2 receptors [2]) [%] | Ki (5-HT2A receptor [3]) [nM] | Ki (5-HT1A receptor [4]) [nM] | Ki (dopamine D2 receptors [5]) [nM] | EC50 (dopamine D2 receptors [6]; [10]) [nM] | Emax (dopamine D2 receptors [6]) [%] | EC50 (5-HT2A receptor [7]; [11]) [nM] | Emax (5-HT2A receptor [7]) [%] | other results |
| --- | --- | --- | --- | --- | --- | --- | --- | --- | --- | --- | --- | --- |
| O=C1CCc2ccc(OCCCN3CCN4c5cccc6scc(c56)CC4C3)cc2N1 (stereo not drawn) [Compound I-18, 7-(3-(6a,7,9,10-Tetrahydropyrazino[1,2-a]Thieno [4,3,2-De]Quinolin-8 (6H)-Yl) Propoxy)-3,4-Dihydroquinolin-2 (1H)-One] | 82 | 696 | 279 | 71.9 | 160 | 10 | 270 | 33.9 | 91.3 |  |  |  |
| O=C(NCCN1CCN2c3cccc4scc(c34)CC2C1)C1CCOCC1 (stereo not drawn) [Compound I-14, N-(2-(6a,7,9,10-Tetrahydropyrazino[1,2-a]Thieno [4,3,2-De]Quinolin-8 (6H)-Yl)Ethyl)Tetrahydro-2H-Pyran-4-Carboxamide] | 86 | 2000 |  |  | 1190 | 1300 | > 10000 |  |  | 475 |  | Gαq BRET (Emax %) (5-HT2A receptor [7]; [11]): (29.10%); β-arrestin2 BRET (Emax %) (5-HT2A receptor [8]): (21.00%); EC50 (5-HT2A receptor [8]): 123 nM |
| c1ccc(OCCN2CCN3c4cccc5scc(c45)CC3C2)cc1 (stereo not drawn) [Compound I-15, 8-(2-Phenoxyethyl)-6,6a,7,8,9,10-Hexahydropyrazino[1,2-a]Thieno [4,3,2-De]Quinoline] | 57 | 5260 | 164 | 10.5 | 1710 | 840 | 5500 | 334 | 18.6 |  |  | Emax (5-HT2A receptor [8]): 10%; EC50 (5-HT2A receptor [8]): 1770 nM |
| CN(C)C(=O)N[C@H]1CC[C@H](CCN2CCN3c4cccc5scc(c45)C[C@@H]3C2)CC1 [(+)-I-27] |  | 206 | 16 |  | 450 | 170 | > 10000 | 9.16 |  |  |  | Gαi1 BRET (Emax %) (5-HT1A receptor [1]): (60%); β-arrestin2 BRET (Emax %) (dopamine D2 receptors [2]; [12]): (45.78%); Gαi1 BRET (Emax %) (dopamine D2 receptors [6]; D2 receptor, G protein pathway): (69.54%) |
| O=C1[C@H]2CCCC[C@H]2C(=O)N1CCCCN1CCN2c3cccc4scc(c34)CC2C1 (stereo partly drawn) [Compound I-26] | 88 | 489 | 44.8 | 19.8 |  | 400 |  | 573 | 47.9 | 339 | 26 |  |
| c1cc2c3c(csc3c1)CC1CN(CCCOc3ccc4c(c3)OCO4)CCN21 (stereo not drawn) [Compound I-16, 8-(3-(Benzo[d][1,3]Dioxol-5-Yloxy) Propyl)-6,6a, 7,8,9,10-Hexahydropyrazino[1,2-a]Thieno [4,3,2-De]Quinoline] | 88 | 2720 | 289 | 37.7 | > 10000 | 560 | 1550 | 44.8 | 57.9 | 340 | 19.5 |  |
| O=C1c2ccccc2CCCN1CCCCN1CCN2c3cccc4scc(c34)CC2C1 (stereo not drawn) [Compound I-25, 2-(4-(6a,7,9,10-Tetrahydropyrazino[1,2-a]Thieno [4,3,2-De]Quinolin-8 (6H)-Yl)Butyl)-2,3,4,5-Tetrahydro-1H-Benzo[c]Azepin-1-One] | 82 | 1320 | 61.5 | 49.2 | 300 | 770 | 100 | 27.8 | 67.9 | 969 | 17.8 |  |
| c1csc(CCN2CCN3c4cccc5scc(c45)CC3C2)c1 (stereo not drawn) [Compound I-6, 8-(2-(Thiophen-2-Yl)Ethyl)-6,6a,7,8,9,10-Hexahydropyrazino[1,2-a]Thieno [4,3,2-De]Quinoline] | 90 | 3230 |  | 20.2 | 7250 | 2730 | 5730 |  | 58.4 |  |  | EC50 (dopamine D2 receptors [2]): 299 nM; EC50 (dopamine D2 receptors [6]): 342 nM; Emax (5-HT2A receptor [8]): 45.4%; EC50 (5-HT2A receptor [8]): 8340 nM |
| c1ccc(-c2cccc(CN3CCN4c5cccc6scc(c56)CC4C3)c2)cc1 (stereo not drawn) [Compound I-7, 8-([1, l′-Biphenyl]-3-Ylmethyl)-6,6a, 7,8,9, 10-Hexahydropyrazino[1,2-a]Thieno [4,3,2-De]Quinoline] |  |  |  |  |  | 39300 |  |  |  | 140 | 36.9 |  |
| c1cc2c3c(csc3c1)CC1CN(CCCCOc3ccc4scnc4c3)CCN21 (stereo not drawn) [Compound I-21, 8-(4-(Benzo[d]Thiazol-5-Yloxy)Butyl)-6,6a,7,8,9,10-Hexahydropyrazino[1,2-a]Thieno [4,3,2-De]Quinoline] | 68 | 8180 | 233 | 32.6 | > 10000 | 3220 | 7180 | 146 | 54 | 4380 | 16.6 |  |
| O=C1CCc2ccc(OCCCCN3CCN4c5cccc6scc(c56)CC4C3)cc2N1 (stereo not drawn) [Compound I-20, 7-(4-(6a,7,9,10-Tetrahydropyrazino[1,2-a]Thieno [4,3,2-De]Quinolin-8 (6H)-Yl) Butoxy)-3,4-Dihydroquinolin-2 (1H)-One] | 72 | 1540 | 464 | 35.6 | 640 | 160 | 30 | 107 | 64 | 5590 | 17.8 |  |
| O=C1NCCN1c1cccc(CN2CCN3c4cccc5scc(c45)CC3C2)c1 (stereo not drawn) [Compound I-9, 1-(3-((6a,7,9,10-Tetrahydropyrazino[1,2-a]Thieno [4,3,2-De]Quinolin-8 (6H)-Yl)Methyl)Phenyl) Imidazolidin-2-One] | 55 | 14400 | 28.6 |  | 690 | 5460 | 800 | 281 |  | 747 | 25 | Emax (dopamine D2 receptors [2]; [12]): 24.2%; Emax (dopamine D2 receptors [6]; D2 receptor, G protein pathway): 23.1% |
| c1cc2c3c(csc3c1)CC1CN(CC3CC3)CCN21 (stereo not drawn) [Compound I-4, 8-(Cyclopropylmethyl)-6,6a,7,8,9,10-Hexahydropyrazino[1,2-a]Thieno [4,3,2-De]Quinoline] | 69 | 12800 | 11.2 |  |  | 590 | 320 | 36.3 |  |  |  | Emax (dopamine D2 receptors [2]; [12]): 16.4%; Emax (dopamine D2 receptors [6]; D2 receptor, G protein pathway): 25% |
| O=C(CCCN1CCN2c3cccc4scc(c34)CC2C1)c1ccc(F)cc1 (stereo not drawn) [Compound I-11, 1-(4-Fluorophenyl)-4-(6a,7,9,10-Tetrahydropyrazino[1,2-a]Thieno [4,3,2-De]Quinolin-8 (6H)-Yl) Butan-1-One] | 28 | 3870 |  |  | 320 | 4540 | 470 |  |  |  |  |  |
| O=c1ccc2ccc(OCCCCN3CCN4c5cccc6scc(c56)CC4C3)cc2[nH]1 (stereo not drawn) [Compound I-19, 7-(4-(6a,7,9,10-Tetrahydropyrazino[1,2-a]Thieno [4,3,2-De]Quinolin-8 (6H)-Yl) Butoxy) Quinolin-2 (1H)-One] | 81 | 3670 | 43.9 | 64.5 | 1410 | 30 | 10 | 8.26 | 74.6 | 1440 | 15.6 |  |
| O=C(N[C@H]1CC[C@H](CCN2CCN3c4cccc5scc(c45)CC3C2)CC1)N1CCCC1 (stereo partly drawn) [Compound I-28, N-(4-(2-(6a,7,9,10-Tetrahydropyrazino[1,2-a]Thieno [4,3,2-De]Quinolin-8 (6H)-Yl)Ethyl) Trans-Cyclohexyl) Pyrrolidine-1-Carboxamide] | 59 | 142 | 38.7 | 34.2 | 520 | 50 | 80 | 18 | 30.7 | 184 | 12.5 |  |
| O=C(NCCN1CCN2c3cccc4scc(c34)CC2C1)c1ccc(F)cc1 (stereo not drawn) [Compound I-12, 4-Fluoro-N-(2-(6a,7,9,10-Tetrahydropyrazino[1,2-a]Thieno [4,3,2-De]Quinolin-8 (6H)-Yl)Ethyl)Benzamide] | 93 | 1320 |  |  | 1520 | 590 | 1210 |  |  |  |  | Emax (5-HT2A receptor [8]): 5.7%; EC50 (5-HT2A receptor [8]): 5240 nM |
| O=C(CN1CCN2c3cccc4scc(c34)CC2C1)c1ccc(F)cc1 (stereo not drawn) [Compound I-10, 1-(4-Fluorophenyl)-2-(6a,7,9,10-Tetrahydropyrazino[1,2-a]Thieno [4,3,2-De]Quinolin-8 (6H)-Yl) Ethan-1-One] | 71 | 7200 | 14.3 | 21.5 |  | 970 | 2060 | 796 | 17.1 |  | 110 | Emax (5-HT2A receptor [8]): 71.6% |
